Experimental data as given in PubChem BioAssay (NCI).
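Five compound concentrations were applied to cells in 96-well plates for 48 hours; endpoints were derived by simple linear interpolation of the resulting dose-response curve. At the GI50, growth is halved. The concentration for full growth arrest is given as TGI.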

How the values were obtained:
Assay in all cases: NCI tumour cell line growth inhibition, 48 h
HOP-62 NSCLC = tested on: HOP-62 NSCLC
BT-549 breast = tested on: BT-549 breast
SR leukemia = tested on: SR leukemia
IGROV1 ovarian = tested on: IGROV1 ovarian
SNB-75 CNS = tested on: SNB-75 CNS
PC-3 prostate = tested on: PC-3 prostate
K-562 leukemia = tested on: K-562 leukemia
RXF 393 renal = tested on: RXF 393 renal
OVCAR-5 ovarian = tested on: OVCAR-5 ovarian
A498 renal = tested on: A498 renal

| SMILES | GI50 (HOP-62 NSCLC) | TGI (HOP-62 NSCLC) | GI50 (BT-549 breast) | TGI (BT-549 breast) | GI50 (SR leukemia) | TGI (SR leukemia) | GI50 (IGROV1 ovarian) | TGI (IGROV1 ovarian) | GI50 (SNB-75 CNS) | TGI (SNB-75 CNS) | GI50 (PC-3 prostate) | TGI (PC-3 prostate) | GI50 (K-562 leukemia) | TGI (K-562 leukemia) | GI50 (RXF 393 renal) | TGI (RXF 393 renal) | GI50 (OVCAR-5 ovarian) | TGI (OVCAR-5 ovarian) | GI50 (A498 renal) | TGI (A498 renal) |
| --- | --- | --- | --- | --- | --- | --- | --- | --- | --- | --- | --- | --- | --- | --- | --- | --- | --- | --- | --- | --- |
| O=S1(=O)CC(Br)C(Br)C1 (centres undefined) | 12.7 µM | 27.6 µM | 5.4 µM | 18.5 µM | 3.58 µM | 21.6 µM | 10.6 µM | 28.6 µM | 5.25 µM | 19.1 µM | 10.7 µM | 26.3 µM | 3.79 µM | 14.2 µM | 1.11 µM | 2.64 µM | 15.8 µM | 54.9 µM | 25.1 µM | 55.1 µM |
| Cc1cc(Cl)ccc1NC(=O)NC(C)(C)COC(=O)Nc1cccc(Cl)c1 | 14.1 µM | 50.5 µM | 21.4 µM | > 100 µM | 8.31 µM | > 100 µM | 11.1 µM | > 100 µM | 11.3 µM | 47.1 µM | 3.66 µM | 52.1 µM | 5.09 µM | > 100 µM | 17.5 µM | 78.6 µM | 8.1 µM | > 100 µM | 2.82 µM | 21.8 µM |
| COc1cccc2ccc3c(c12)C(=O)OC31CCc2c(C)cccc21 (centres undefined) | – | > 46.4 µM | – | > 100 µM | – | 18.4 µM | – | > 46.4 µM | – | 45.1 µM | – | > 100 µM | – | 89.5 µM | – | 44.6 µM | – | > 46.4 µM | – | 22.7 µM |
| N#C/C(=C\c1cccnc1)c1nc2ccccc2o1 | > 100 µM | > 100 µM | > 100 µM | > 100 µM | > 100 µM | > 100 µM | > 100 µM | > 100 µM | > 100 µM | > 100 µM | > 100 µM | > 100 µM | > 100 µM | > 100 µM | > 100 µM | > 100 µM | > 100 µM | > 100 µM | 66.4 µM | > 100 µM |
| N#Cc1ccc2c(c1)C(=O)c1c-2n(CCCN=[N+]=[N-])c(=O)c2cc([N+](=O)[O-])ccc12 | 15 µM | > 50 µM | 5.49 µM | > 50 µM | 0.373 µM | 4.82 µM | 12.4 µM | > 50 µM | 17.4 µM | > 50 µM | > 50 µM | > 50 µM | – | – | > 50 µM | > 50 µM | > 50 µM | > 50 µM | > 50 µM | > 50 µM |
| C=C1C[C@@H]2[C@H](CC[C@]3(C)C(=O)CC[C@@H]23)[C@@]2(C)C=CC(=O)C=C12 | 35.2 µM | > 83.1 µM | 28.9 µM | > 100 µM | > 54.4 µM | > 79.9 µM | 34.4 µM | > 100 µM | 30 µM | > 100 µM | 66.9 µM | > 100 µM | > 59.8 µM | > 100 µM | – | – | 37.3 µM | > 100 µM | > 50.8 µM | > 90.3 µM |
| COc1cc(/C=C/c2cc(/C=C/c3ccc(O)c(OC)c3)[nH]c(=O)n2)ccc1O | 4.11 µM | 17.6 µM | 2.06 µM | 8.08 µM | 1.91 µM | 6.18 µM | 4.41 µM | > 100 µM | 1.72 µM | 12 µM | 3.2 µM | 18.6 µM | 3.66 µM | 35.8 µM | 2.24 µM | 4.93 µM | 10 µM | 28.4 µM | 3.11 µM | 25.2 µM |
| CC(=O)O[C@H](C[C@H](C(C)C)N(C)C(=O)[C@@H](NC(=O)[C@H]1CCCCN1C)C(C)(C)C)c1nc(C(=O)N[C@@H](Cc2ccccc2)C[C@H](C)C(=O)O)cs1 | < 0.0025 µM | > 25 µM | 0.00304 µM | 0.0645 µM | < 0.0025 µM | > 25 µM | 0.00294 µM | > 25 µM | < 0.0025 µM | > 25 µM | < 0.0025 µM | > 25 µM | < 0.0025 µM | > 25 µM | < 0.0025 µM | > 25 µM | < 0.0025 µM | > 25 µM | – | – |
| N=C1C(c2nc(-c3ccc(Br)cc3)cs2)=C(O)CN1CC1CCCO1 (centres undefined) | > 100 µM | > 100 µM | > 100 µM | > 100 µM | > 100 µM | > 100 µM | – | – | 7.13 µM | > 100 µM | > 100 µM | > 100 µM | > 100 µM | > 100 µM | > 100 µM | > 100 µM | > 100 µM | > 100 µM | > 100 µM | > 100 µM |
| C[C@]12CC[C@H]3[C@@H](CCC4=C[C@@H](OC5OCC(OC6OC(CO)C(O)C(O)C6O)C(O)C5O)CC[C@@]43C=O)[C@@]1(O)CCC2C1=CC(=O)OC1 (some centres undefined) | – | 1.84 µM | – | 0.881 µM | – | 0.627 µM | – | 2.66 µM | – | 12.8 µM | – | 4.14 µM | – | 3.38 µM | – | 1.2 µM | – | 3.78 µM | – | 2.99 µM |
| CC[C@H](C)[C@H](NC(=O)c1nccn1C)C(=O)N(C)[C@H](C[C@@H](OC(C)=O)c1nc(C(=O)N[C@@H](Cc2ccccc2)C[C@H](C)C(=O)OC)cs1)C(C)C | 1.42 µM | > 33.3 µM | 0.398 µM | 3.94 µM | 0.179 µM | > 33.3 µM | 0.704 µM | > 33.3 µM | 0.199 µM | > 33.3 µM | 1.11 µM | > 33.3 µM | 0.796 µM | > 33.3 µM | – | – | 2.23 µM | > 33.3 µM | 1.11 µM | > 33.3 µM |
| S=c1[nH]nc(SCc2ccccc2Cl)c2[nH]cnc12 | – | > 100 µM | – | > 100 µM | – | > 100 µM | – | > 100 µM | – | > 100 µM | – | > 100 µM | – | > 100 µM | – | > 100 µM | – | > 100 µM | – | > 100 µM |
| CN(C)c1ccc(N=C(C#N)c2nc(N)nc(N3CCN(c4ccccc4)CC3)n2)cc1 | > 28.6 µM | > 50 µM | 23.6 µM | > 50 µM | > 50 µM | > 50 µM | 14.8 µM | > 50 µM | 6.9 µM | 25.6 µM | 36.9 µM | > 50 µM | > 50 µM | > 50 µM | 22.1 µM | 39.1 µM | > 50 µM | > 50 µM | – | – |
| COc1cc(CNC(=O)CCSc2nc3ccccc3c(=O)n2Cc2cc(OC)c(OC)c(OC)c2)cc(OC)c1OC | 4.36 µM | 28.7 µM | 4.9 µM | 44.1 µM | 3.01 µM | > 100 µM | 13.2 µM | > 100 µM | 2.06 µM | 12.9 µM | 10.8 µM | > 100 µM | – | – | 5.31 µM | 26 µM | 9.38 µM | > 100 µM | 4.05 µM | 21.1 µM |
| Cn1c(O)c(N=NC(N)=S)c2ccccc21 | 33.5 µM | > 100 µM | > 100 µM | > 100 µM | 90.1 µM | > 100 µM | – | – | 18.3 µM | 98 µM | 79.9 µM | > 100 µM | 95.2 µM | > 100 µM | 32 µM | > 100 µM | > 100 µM | > 100 µM | 97.7 µM | > 100 µM |
| O=C(Nc1ccccc1C(=O)Nc1nccs1)c1ccccc1 | – | > 100 µM | – | > 100 µM | – | > 100 µM | – | > 100 µM | – | > 100 µM | – | > 100 µM | – | > 100 µM | – | – | – | > 100 µM | – | > 100 µM |
| CCCNc1cccc(-n2ncc3c(N/N=C/c4ccncc4)ncnc32)c1 | 4.72 µM | > 25 µM | > 8.4 µM | > 25 µM | 1.18 µM | > 25 µM | – | – | 0.934 µM | > 19.4 µM | > 25 µM | > 25 µM | 1.12 µM | > 25 µM | 1.07 µM | > 25 µM | > 25 µM | > 25 µM | 1.12 µM | > 25 µM |
| CCN(CC)CCOc1nc2cc(OC)c(OC)cc2c2c1-c1ccc(OC)cc1C2=O | 10 µM | 22.2 µM | 15.7 µM | 29.5 µM | 0.583 µM | 3.4 µM | 5.65 µM | 20.6 µM | 16.8 µM | 33.1 µM | 12.3 µM | 26.8 µM | 2.06 µM | 5.01 µM | 12.8 µM | 25.9 µM | 21.2 µM | 36.4 µM | – | – |
| Cc1ccc(S(=O)(=O)c2ccsc2N)cc1 | > 100 µM | > 100 µM | > 100 µM | > 100 µM | > 100 µM | > 100 µM | > 100 µM | > 100 µM | – | – | > 100 µM | > 100 µM | > 100 µM | > 100 µM | 63.9 µM | > 100 µM | > 100 µM | > 100 µM | 40.7 µM | > 100 µM |
| O=C(c1ccccc1)c1ccccc1C(=O)c1ccccc1 | > 100 µM | > 100 µM | 32 µM | > 100 µM | 41.7 µM | > 100 µM | – | – | 45.5 µM | > 100 µM | 37.7 µM | > 100 µM | 41 µM | > 100 µM | 47.8 µM | > 100 µM | > 100 µM | > 100 µM | 4.34 µM | > 100 µM |
| O=C1NC(O)CCN1C1CC(O)C(CO)O1 (centres undefined) | – | > 100 µM | – | > 100 µM | – | > 100 µM | – | > 100 µM | – | – | – | > 100 µM | – | > 100 µM | – | > 100 µM | – | > 100 µM | – | > 100 µM |
